By EC50 is commonly meant the concentration at which the effect is half-maximal. A lower EC50 goes with higher potency in that assay.

The target in the assay is T1, human orexin-2 receptor (OX2R) (Homo sapiens, UniProt O43614).
T1 construct: expressed in transfected cells
T1 sequence (O43614 1-444): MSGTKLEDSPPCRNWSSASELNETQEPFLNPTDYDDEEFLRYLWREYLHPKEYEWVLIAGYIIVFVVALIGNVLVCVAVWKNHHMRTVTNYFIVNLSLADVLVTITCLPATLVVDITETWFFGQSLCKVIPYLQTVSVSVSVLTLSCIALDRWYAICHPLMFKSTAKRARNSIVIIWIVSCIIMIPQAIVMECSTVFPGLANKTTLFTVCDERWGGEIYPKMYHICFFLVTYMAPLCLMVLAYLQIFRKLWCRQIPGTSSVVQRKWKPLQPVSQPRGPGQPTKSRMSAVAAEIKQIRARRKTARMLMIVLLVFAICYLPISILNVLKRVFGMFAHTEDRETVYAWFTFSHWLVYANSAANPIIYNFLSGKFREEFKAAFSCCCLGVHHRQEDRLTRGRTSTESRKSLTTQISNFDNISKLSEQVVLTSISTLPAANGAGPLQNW
Nature of the assay: Human OX2R IP1 assay. The format is cell-based. The conditions noted are these: T-Rex CHO cells stably overexpressing human OX2R; IP1 accumulation, 1 hr at 37 degrees C; mean EC50. Here is the method:
T-Rex CHO cells stably overexpressing the human orexin-2 receptor (OX2R) were induced overnight with 1 μg/mL of doxycycline in a T225 flask. 24 hours post induction, cells were lifted with accutase and plated into a 384-well proxy plate at 30,000 cells/well. Cells were then treated with different test compounds in 1× stimulation buffer containing 10 mM Hepes, 1 mM CaCl2, 0.5 mM MgCl2, 4.2 mM KCl, 146 mM NaCl, 5.5 mM glucose, and 50 mM LiCl, pH 7.4, for 1 hr at 37 degrees C. Following incubation, the reaction was terminated by the addition of detection mix, which is composed of IP1-d2 and anti-IP1-cryptate diluted in lysis buffer as well as 1× stimulation buffer. The plates were allowed to incubate for 1 hour at room temperature and were then read in the EnVision® multimode plate reader, measuring inositol phosphate levels.
Cisbio IP1 is a cell-based functional assay quantifying the accumulation of inositol monophosphate (IP), a metabolite released as a result of orexin 2 receptor activation through the phospholipase C-Gq signaling pathway. This is a competitive immunoassay in which the IP1 produced by the cells upon receptor activation competes with the IP1 analog coupled to the d2 fluorophore (acceptor) for binding to an anti-IP1 monoclonal antibody labeled with Eu cryptate (donor). The measured HTRF-FRET based signal is inversely proportional to the IP1 concentration produced.
The EC50 values reported in Table 2 were obtained according to the human OX2R IP1 assay described above. Data are the mean EC50 values±S.E.M.
The compound `Cn1ncc2cc([C@H]3CC[C@@H](OC[C@@H]4CN(c5ccccn5)CC[C@@H]4NS(=O)(=O)C(F)(F)F)CC3)ccc21` [Compound 10] gave an EC50 below 1 nM.

As to `Cn1ncc2cc([C@H]3CC[C@@H](OC[C@@H]4CN(c5cccnn5)CC[C@@H]4NS(C)(=O)=O)CC3)ccc21` [Compound 15], the EC50 lay in the range of 1 to 10 nM.

Compound `Cn1ncc2cc([C@H]3CC[C@@H](OC[C@@H]4CN(C(=O)C(C)(C)C)CC[C@@H]4NS(C)(=O)=O)CC3)ccc21` [Compound 22] registered an EC50 of 1 to 10 nM.

`Cn1ncc2cc([C@H]3CC[C@@H](OC[C@@H]4CN(C(=O)C5(F)CCC5)CC[C@@H]4NS(C)(=O)=O)CC3)ccc21` [Compound 11] displayed an EC50 below 1 nM.

For `O=S(=O)(N[C@H]1CCN(c2ccccn2)C[C@H]1CO[C@H]1CC[C@@H](c2ccc3[nH]ncc3c2)CC1)C(F)(F)F` [Compound 2], the EC50 fell in the range of 1 to 10 nM.

With `Cn1ncc2cc([C@H]3CC[C@@H](OC[C@@H]4CN(c5cccnn5)CC[C@@H]4NS(=O)(=O)C(F)(F)F)CC3)cc(F)c21` [Compound 26], the EC50 was in the range of 1 to 10 nM.

`Cn1ncc2cc([C@H]3CC[C@@H](OC[C@@H]4CN(C(=O)CO)CC[C@@H]4NS(C)(=O)=O)CC3)ccc21` [Compound 48] showed an EC50 above 10 nM.

Compound `Cn1ncc2ccc([C@H]3CC[C@H](OC[C@@H]4CN(c5ccccn5)CC[C@@H]4NS(C)(=O)=O)CC3)cc21` [Compound 65] came in with an EC50 above 10 nM.

For `CN(C)C(=O)N[C@H]1CCN(c2cccnn2)C[C@H]1CO[C@H]1CC[C@@H](c2ccc3c(cnn3C)c2)CC1` [Compound 58], the EC50 was above 10 nM.

Regarding `Cn1ncc2ccc(C3CCC(OC[C@@H]4CN(c5ccccn5)CC[C@@H]4NS(C)(=O)=O)CC3)cc21` (some centres unmarked) [Compound 66], the concentration giving a half-maximal response (EC50) is above 10 nM.

As to `Cn1ncc2cc([C@H]3CC[C@@H](OC[C@@H]4CN(C(=O)Cc5ccncn5)CC[C@@H]4NS(C)(=O)=O)CC3)ccc21` [Compound 52], the EC50 was above 10 nM.

The compound `Cn1ncc2cc([C@H]3CC[C@@H](OC[C@@H]4CN(c5cnccn5)CC[C@@H]4NS(=O)(=O)C(F)(F)F)CC3)ccc21` [Compound 25] gave an EC50 of 1 to 10 nM.

In the case of `Cn1ncc2cc([C@H]3CC[C@@H](OC[C@@H]4CN(C(=O)[C@@H]5CCOC5)CC[C@@H]4NS(C)(=O)=O)CC3)ccc21` [Compound 17], the EC50 fell in the range of 1 to 10 nM.

`Cn1ncc2cc([C@H]3CC[C@@H](OC[C@@H]4CN(C(=O)C(C)(C)O)CC[C@@H]4NS(C)(=O)=O)CC3)ccc21` [Compound 21] had a 50% effective concentration (EC50) of 1 to 10 nM.

On to `Cn1ncc2cc([C@H]3CC[C@@H](OC[C@@H]4CN(c5ccccn5)CC[C@@H]4NS(C)(=O)=O)CC3)ccc21` [Compound 3], for which the concentration giving a half-maximal response (EC50) was below 1 nM.

With `Cn1cnc2cc([C@H]3CC[C@@H](OC[C@@H]4CN(C(=O)C5(F)CCC5)CC[C@@H]4NS(C)(=O)=O)CC3)ccc21` [Compound 16], the EC50 was below 1 nM.

For the compound `Cn1ncc2cc([C@H]3CC[C@@H](OC[C@@H]4CN(C(=O)CN5CCCCC5)CC[C@@H]4NS(C)(=O)=O)CC3)ccc21` [Compound 46], the EC50 is above 10 nM.

Take `CNS(=O)(=O)N[C@H]1CCN(c2cccnn2)C[C@H]1CO[C@H]1CC[C@@H](c2ccc3c(cnn3C)c2)CC1` [Compound 29]: the EC50 is below 1 nM.

As for `Cn1cnc2ccc([C@H]3CC[C@H](OC[C@@H]4CN(c5ccccn5)CC[C@@H]4NS(C)(=O)=O)CC3)cc21` [Compound 64], the 50% effective concentration (EC50) lay in the range of 1 to 10 nM.

For `Cn1ncc2cc([C@H]3CC[C@@H](OC[C@@H]4CN(C(=O)Cc5ncccn5)CC[C@@H]4NS(C)(=O)=O)CC3)ccc21` [Compound 50], the EC50 was above 10 nM.

Compound `Cn1cnc2ccc(C3CCC(OC[C@@H]4CN(c5ccccn5)CC[C@@H]4NS(C)(=O)=O)CC3)cc21` (some centres unmarked) [Compound 63] gave an EC50 above 10 nM.

With `Cn1ncc2cc([C@H]3CC[C@@H](OC[C@@H]4CN(C(=O)CN5CCOCC5)CC[C@@H]4NS(C)(=O)=O)CC3)ccc21` [Compound 45], the EC50 was above 10 nM.

For the compound `Cn1ncc2cc([C@H]3CC[C@@H](OC[C@@H]4CN(C(=O)C5COC5)CC[C@@H]4NS(C)(=O)=O)CC3)ccc21` [Compound 47], the EC50 is above 10 nM.

`Cn1ncc2cc([C@H]3CC[C@@H](OC[C@@H]4CN(C(=O)C5CC5)CC[C@@H]4NS(C)(=O)=O)CC3)ccc21` [Compound 18] gave a 50% effective concentration (EC50) of 1 to 10 nM.

As to `Cn1ncc2cc([C@H]3CC[C@@H](OC[C@@H]4CN(C(=O)C5CCOC5)CC[C@@H]4NS(C)(=O)=O)CC3)ccc21` (some centres unmarked) [Compound 59], the EC50 lay within 1 to 10 nM.

`Cn1ncc2cc([C@H]3CC[C@@H](OC[C@@H]4CN(C(=O)N5CCC5)CC[C@@H]4NS(C)(=O)=O)CC3)ccc21` [Compound 23] displayed an EC50 of 1 to 10 nM.

Compound `CN(C)S(=O)(=O)N[C@H]1CCN(c2cccnn2)C[C@H]1CO[C@H]1CC[C@@H](c2ccc3c(cnn3C)c2)CC1` [Compound 30] had an EC50 below 1 nM.

For `Cn1ncc2cc([C@H]3CC[C@@H](OC[C@@H]4CN(C(=O)C5CCOC5)CC[C@@H]4NS(=O)(=O)C(F)(F)F)CC3)ccc21` (some centres unmarked) [Compound 33], the EC50 was 1 to 10 nM.

Take `Cn1cnc2ccc([C@H]3CC[C@@H](OC[C@@H]4CN(c5ccccn5)CC[C@@H]4NS(C)(=O)=O)CC3)cc21` [Compound 9]: the EC50 fell in the range of 1 to 10 nM.

`CN(C)S(=O)(=O)N[C@H]1CCN(C(=O)[C@@H]2CCOC2)C[C@H]1CO[C@H]1CC[C@@H](c2ccc3c(cnn3C)c2)CC1` [Compound 31] returned an EC50 of 1 to 10 nM.

Regarding `CS(=O)(=O)N[C@H]1CCN(c2ccccn2)C[C@H]1CO[C@H]1CC[C@@H](c2ccc3[nH]ncc3c2)CC1` [Compound 1], the EC50 is below 1 nM.

Consider `COC(=O)N1CC[C@H](NS(C)(=O)=O)[C@H](CO[C@H]2CC[C@@H](c3ccc4c(cnn4C)c3)CC2)C1` [Compound 12], for which the EC50 fell in the range of 1 to 10 nM.

`Cn1ncc2cc([C@H]3CC[C@@H](OC[C@@H]4CN(CC(=O)N5CCCCC5)CC[C@@H]4NS(C)(=O)=O)CC3)ccc21` [Compound 61] came in with a concentration giving a half-maximal response (EC50) above 10 nM.

The compound `Cn1ncc2cc([C@H]3CC[C@@H](OC[C@@H]4CN(C(=O)C5CCO5)CC[C@@H]4NS(C)(=O)=O)CC3)ccc21` (some centres unmarked) [Compound 53] returned an EC50 above 10 nM.

With `CS(=O)(=O)N[C@H]1CCN(C(=O)C2(F)CCC2)C[C@H]1CO[C@H]1CC[C@@H](c2ccc3[nH]ncc3c2)CC1` [Compound 4], the EC50 lay in the range of 1 to 10 nM.

In turn, `Cn1ncc2cc([C@H]3CC[C@@H](OC[C@@H]4CN(C(=O)C5(F)CCC5)CC[C@@H]4NS(=O)(=O)C(F)(F)F)CC3)ccc21` [Compound 14] showed a concentration giving a half-maximal response (EC50) of 1 to 10 nM.

In turn, `Cn1ncc2cc([C@H]3CC[C@@H](OC[C@@H]4CN(C(=O)Cc5cnccn5)CC[C@@H]4NS(C)(=O)=O)CC3)ccc21` [Compound 51] showed an EC50 above 10 nM.

Compound `Cn1ncc2cc([C@H]3CC[C@@H](OC[C@@H]4CN(C(=O)[C@H]5CCOC5)CC[C@@H]4NS(C)(=O)=O)CC3)ccc21` [Compound 62] gave an EC50 above 10 nM.

In turn, `Cn1cnc2ccc([C@H]3CC[C@@H](OC[C@@H]4CN(C(=O)C5(F)CCC5)CC[C@@H]4NS(C)(=O)=O)CC3)cc21` [Compound 19] gave an EC50 of 1 to 10 nM.

For the compound `COC(=O)N1CC[C@H](NS(C)(=O)=O)[C@H](CO[C@H]2CC[C@@H](c3ccc4[nH]ncc4c3)CC2)C1` [Compound 5], the EC50 lay in the range of 1 to 10 nM.

Compound `Cn1ncc2cc([C@H]3CC[C@@H](OC[C@@H]4CN(c5cccnn5)CC[C@@H]4NS(=O)(=O)C(F)(F)F)CC3)ccc21` [Compound 13] registered an EC50 below 1 nM.

In turn, `Cn1ccnc1CC(=O)N1CC[C@H](NS(C)(=O)=O)[C@H](CO[C@H]2CC[C@@H](c3ccc4c(cnn4C)c3)CC2)C1` [Compound 49] had an EC50 above 10 nM.

With `Cn1cnc2cc([C@H]3CC[C@@H](OC[C@@H]4CN(c5ccccn5)CC[C@@H]4NS(C)(=O)=O)CC3)ccc21` [Compound 8], the EC50 was 1 to 10 nM.

`Cn1ncc2cc([C@H]3CC[C@@H](OC[C@@H]4CN(C(=O)c5cncs5)CC[C@@H]4NS(C)(=O)=O)CC3)ccc21` [Compound 27]: the half-maximal effective concentration (EC50) fell in the range of 1 to 10 nM.

Turning to `Cn1ncc2cc([C@H]3CC[C@@H](OC[C@@H]4CN(c5ccccn5)CC[C@@H]4NS(C)(=O)=O)CC3)ncc21` [Compound 7], the EC50 is above 10 nM.

In the case of `Cn1ncc2cc([C@H]3CC[C@@H](OC[C@@H]4CN(C(=O)[C@@]5(C)CCOC5)CC[C@@H]4NS(C)(=O)=O)CC3)ccc21` [Compound 28], the EC50 is 1 to 10 nM.

`CC(=O)N1CC[C@H](NS(C)(=O)=O)[C@H](CO[C@H]2CC[C@@H](c3ccc4c(cnn4C)c3)CC2)C1` [Compound 20] showed an EC50 above 10 nM.

The record behind these values is US20250230141A1, “Substituted Fused Bicyclic Compounds and Related Methods of Treatment” (Alkermes, Inc., priority 2022, published 2025).
